Experimental data taken from PubChem BioAssay AID1918944 (Molecular Pharmacology Branch, DTP, NCI, 2023).
Several values for one entry are separate records, joined by “and”; a condition that tells them apart may be missing. Identical values can stand only once. Activity calls are given as the source filed them. The calls were made as follows: active = viability on the fitted dose curve at most 10% of control; inactive = the rest.

Tested on: 786-0 complex spheroid viability
Assay: Anticancer human tumor 786-0 cell line growth inhibition;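 also: spheroids exposed to agents for seven days before readout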
Details: for viability, T/C: stronger effect = lower value
From the text: Multicellular complex tumor spheroid response to LSD1 Inhibitor Iadademstat in combination with a variety of drugs and investigational agents in selected tumor cell lines
The current study was undertaken to assess response to LSD1 inhibitors in combination with standard-of-care drugs and investigational agents in solid tumor complex spheroid models as well as in the K-562 leukemia. Complex spheroids include a stromal component modeled by human endothelial cells (HUVEC) and fibroblasts modeled by human mesenchymal stem cells (MSCs). The concentration ranges selected for each drug and investigational agent were based upon clinically achievable concentrations if the clinical Cmax of the agent was known.
Compounds. The drugs and investigational agents used in this study are listed on Table 1. All of the agents used, including staurosporine (NSC755774) and gemcitabine (NSC613327), were obtained from the Developmental Therapeutics Program, NCI. FDA-approved anticancer drugs are available from the NCI at http://dtp.nci.nih.gov/branches/dscb/oncology_drugset_explanation.html. Drugs and investigational agents were >95% pure by proton nuclear magnetic resonance (NMR) and liquid chromatography/mass spectrometry (LC/MS). Stock solutions were prepared at 400x in DMSO, stored at -70 degrees C, and diluted in fresh medium prior to their use. The final concentration of DMSO in cell culture wells never exceeded 0.25% (v/v). The FDA-approved anticancer drug set is available from the Developmental Therapeutics Program at https://dtp.cancer.gov/organization/dscb/obtaining/available_plates.htm. All drugs and investigational agents were tested over a range starting from a high concentration at or near the clinical Cmax and decreasing in half-log increments. If the clinical Cmax for an agent had not been determined, the highest concentration tested was 10 microM.
Cell Lines. The patient-derived cancer cell (PDC) lines: 292921-168-R-J2-PDC, K24384-001-R-PDC, and 521955-158-R2-J5-PDC pancreatic carcinomas, 556581-035-R-J1 ovarian carcinoma, 324938-238-R-J1-PDC, 855422-203-R-J1-PDC and 883617-216-R-J1-PDC urothelial bladder carcinomas, 743489-274-T-PDC renal cell carcinoma, 138582-R-J1 Merkel cell tumor, K60290-347-R-J1 and K57222-313-R-J1-PDC glioblastomas, 653999-131-R-J2-PDC, LG0703-F948-PDC, and 349418-098-R-PDC non-small cell lung carcinomas, 885512-296-R-J2-PDC, 171881-019-R-J1-PDC breast carcinomas and 186277-243-T-J2-PDC and 233499-124-R-J2-PDC colon carcinomas were obtained from the NCI Patient-Derived Models Repository (PDMR, https://pdmr.cancer.gov). The established cell lines NCI/ADR-RES (RRID:CVCL_14520 and OVCAR-5 (RRID:CVCL_1628) ovarian carcinomas, 786-O (RRID:CVCL_1051) and A498 (RRID:CVCL_A498) renal cell carcinoma, NCI-H211 (ATCC, cat. CRL-5824; RRID:CVCL_1529), NCI-H196 (ATCC, cat. CRL-5823, RRID:CVCL_1509), SW 1271 (ATCC, cat. CRL-2177, RRID:CVCL_1716) and NCI-H1876 (ATCC, cat. CRL-5902, RRID:CVCL_1503) small cell lung carcinomas, MDA-MB-231 (RRID:CVCL_0062) and MDA-MB-468 (RRID:CVCL_0419)breast carcinomas (10-12). Pooled donor human umbilical vein endothelial cells (HUVEC, Lonza, cat. CC-2519) and human mesenchymal stem cells (hMSC, Lonza, cat. PT-2501) were purchased from Lonza (Walkersville, MD).
Cell Culture. All cells were maintained in an incubator at 37 degrees C and 5% CO2 with 95% humidity. The PDC lines were cultured according to standard operating procedures established by the NCI PDMR (https://pdmr.cancer.gov). Briefly all PDCs were thawed and cultured in Matrigel-coated flasks prepared with a working solution of 1X Ham's F-12 nutrient mix, without supplementation (Invitrogen, Waltham, MA, cat. 11765054), 100 U/mL penicillin-streptomycin (Invitrogen, cat. 15140122), and 2.5% Matrigel (Corning Inc., Corning, NY, cat. 354248) for the first three passages. […]

Q: Which results are given for `Nc1ccn(C2OC(CO)C(O)C2(F)F)c(=O)n1` (stereo not drawn)?
A: viability, T/C (compound 0.000949 µM): 10.4% and 19.8%; viability, T/C (compound 0.003 µM): 4.3% and 7%; outcome (compound 0.00949 µM): active; viability, T/C (compound 0.00949 µM): 4.25%; viability, T/C (compound 0.03 µM): 4.55% and 6.65%; viability, T/C (compound 0.0949 µM): 4.92% and 6.2%; viability, T/C (compound 0.3 µM): 6.14% and 6.43%; IC50 (curve of compound): < 0.000949 µM

Q: What does the source list for `CC1(C)CCC(CN2CCN(c3ccc(C(=O)NS(=O)(=O)c4ccc(NCC5CCOCC5)c([N+](=O)[O-])c4)c(Oc4cnc5[nH]ccc5c4)c3)CC2)=C(c2ccc(Cl)cc2)C1` + NC1CC1c1ccc(-c2cccc(O)c2)cc1?
A: IC50 (curve of first compound, second compound 0.1 µM): > 10 µM; IC50 (curve of first compound, second compound 0.316 µM): > 10 µM; IC50 (curve of first compound, second compound 1 µM): > 10 µM; IC50 (curve of first compound, second compound 3.16 µM): > 10 µM; IC50 (curve of first compound, second compound 10 µM): 8.09 µM; viability, T/C (second compound 0.1 µM, first compound 0.0316 µM): 119%; viability, T/C (second compound 0.1 µM, first compound 0.1 µM): 114%; viability, T/C (second compound 0.1 µM, first compound 0.316 µM): 115%; viability, T/C (second compound 0.1 µM, first compound 1 µM): 110%; viability, T/C (second compound 0.1 µM, first compound 3.16 µM): 103%; viability, T/C (second compound 0.1 µM, first compound 10 µM): 66.6%; viability, T/C (second compound 0.316 µM, first compound 0.0316 µM): 105%; viability, T/C (second compound 0.316 µM, first compound 0.1 µM): 114%; viability, T/C (second compound 0.316 µM, first compound 0.316 µM): 106%; viability, T/C (second compound 0.316 µM, first compound 1 µM): 111%; viability, T/C (second compound 0.316 µM, first compound 3.16 µM): 100%; viability, T/C (second compound 0.316 µM, first compound 10 µM): 68.6%; viability, T/C (second compound 1 µM, first compound 0.0316 µM): 113%; viability, T/C (second compound 1 µM, first compound 0.1 µM): 114%; viability, T/C (second compound 1 µM, first compound 0.316 µM): 106%; viability, T/C (second compound 1 µM, first compound 1 µM): 106%; viability, T/C (second compound 1 µM, first compound 3.16 µM): 96.3%; viability, T/C (second compound 1 µM, first compound 10 µM): 60.9%; viability, T/C (second compound 3.16 µM, first compound 0.0316 µM): 105%; viability, T/C (second compound 3.16 µM, first compound 0.1 µM): 110%; viability, T/C (second compound 3.16 µM, first compound 0.316 µM): 106%; viability, T/C (second compound 3.16 µM, first compound 1 µM): 101%; viability, T/C (second compound 3.16 µM, first compound 3.16 µM): 93.3%; viability, T/C (second compound 3.16 µM, first compound 10 µM): 57.3%; viability, T/C (second compound 10 µM, first compound 0.0316 µM): 102%; viability, T/C (second compound 10 µM, first compound 0.1 µM): 95.7%; viability, T/C (second compound 10 µM, first compound 0.316 µM): 103%; viability, T/C (second compound 10 µM, first compound 1 µM): 90.8%; viability, T/C (second compound 10 µM, first compound 3.16 µM): 81.6%; viability, T/C (second compound 10 µM, first compound 10 µM): 42.6%
